Results as given in ChEMBL document CHEMBL1201862, “PubChem BioAssay data set” (2004).
Activity calls are given as the source filed them.

Key:
[1] = biological target: Mitogen-activated protein kinase 10 (Homo sapiens, UniProt P53779); assay: Dose response biochemical screening assay for inhibitors of c-Jun N-Terminal Kinase 3 (JNK3). [Related pubchem assays: 746 ]
[2] = P. falciparum 3D7-ScDHODH growth inhibitors, dose response, SYBR Green, dry powder samples (AID 1159570); type: functional, cell-based;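 further: parasite growth measured after 72 hours of compound exposure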
[3] = HepG2 cell cytotoxicity, dose response, cytotoxicity control, plate reader, dry powder samples (AID 1159569); type: functional, cell-based;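 further: inhibitor potency with signal falling toward the positive control level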
[4] = P. falciparum Dd2 growth inhibitors, dose response, SYBR Green, cherry-picked samples (AID 1159567); type: functional, cell-based
[5] = P. falciparum Dd2 growth inhibitors, dose response, SYBR Green, dry powder samples (AID 1159566); type: functional, cell-based;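 further: potency for growth inhibition with lower SYBR green DNA signal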
[6] = P. falciparum ATP4 D1247Y mutant growth inhibitors, dose response, NITD609-resistant line, SYBR Green, dry powder (AID 1159571); type: functional, cell-based;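 further: parasites synchronized at ring stage by sorbitol before testing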
[7] = biological target: Nuclear receptor subfamily 5 group A member 2 (Homo sapiens, UniProt O00482); type: functional, cell-based;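 further: HEK293T cells transfected with LRH-1 and a StAR promoter luciferase reporter; potency for inhibitors that lower LRH-1 driven reporter light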
Steroidogenic factor 1 = Steroidogenic factor 1 (Homo sapiens, UniProt Q13285); assay: Counterscreen for inverse agonists of the liver receptor homolog-1 (LRH-1; NR5A2): Luminescence-based cell-based high throughput dose response assay to identify inverse agonists of the Steroidogenic Factor 1 Nuclear Receptor (SF1; NR5A1).; type: functional
[8] = StAR promoter reporter inhibition counter-screen, dose response, counter-screen for LRH-1 inverse agonist project, cell-based, luminescence, luciferase reporter (AID 651969); type: functional
HEK293 = assay: inhibitors of LMP1-driven NF-kB reporter, dose response, cell-based, HEK293, luciferase, cherry-pick (AID 588343); type: functional; conditions: Homo sapiens
[9] = inhibitors of intracellular T. cruzi replication, confirmation, NIH3T3 host cells, beta-gal luminescence (AID 2044); type: functional, cell-based;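 further: intracellular parasites grown in NIH/3T3 mouse fibroblasts as host cells; luminescent beta-galactosidase reporter signal from transgenic T. cruzi replicating inside host cells; inhibitors lower the luminescence signal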
[10] = cytotoxicity toward NIH3T3 fibroblasts, dose response, counter-screen, cell-based, ATP luminescence, mouse fibroblasts (AID 2010); type: functional;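 further: cells exposed to compound for about 90 hours before reading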
[11] = biological target: T1, Endoribonuclease toxin MazF (Escherichia coli K-12, UniProt P0AE70); assay: MazF toxin RNase activators, dose response, biochemical, fluorescence, single-stranded RNA substrate, uHTS hits (AID 588481); type: functional
T1 sequence (P0AE70 whole entry): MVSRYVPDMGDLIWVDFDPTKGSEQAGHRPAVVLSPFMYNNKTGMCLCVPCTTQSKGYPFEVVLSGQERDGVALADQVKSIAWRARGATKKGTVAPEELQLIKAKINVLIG

[12] = biological target: T1, Endoribonuclease toxin MazF; assay: fluorescent RNA oligo signal without MazF, dose response, counter-screen for MazEF activator project, biochemical, fluorescence, single-stranded RNase substrate (AID 588502); type: functional
H9c2 = assay: cells; type: functional, cell-based; conditions: Rattus norvegicus, H9c2, Myocardium;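 further: confirmatory concentration-response retest of ultra-high-throughput screening hits for modulation of myocardial damage; cell death induced by hydrogen peroxide oxidative stress; compound pretreatment for 60 min then peroxide exposure for 2 h; potency is for protecting the cells against peroxide damage rather than for killing them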
[13] = biological target: T2, DNA repair protein RAD52 homolog (Homo sapiens, UniProt P43351); type: functional, biochemical
T2 sequence (P43351 whole entry): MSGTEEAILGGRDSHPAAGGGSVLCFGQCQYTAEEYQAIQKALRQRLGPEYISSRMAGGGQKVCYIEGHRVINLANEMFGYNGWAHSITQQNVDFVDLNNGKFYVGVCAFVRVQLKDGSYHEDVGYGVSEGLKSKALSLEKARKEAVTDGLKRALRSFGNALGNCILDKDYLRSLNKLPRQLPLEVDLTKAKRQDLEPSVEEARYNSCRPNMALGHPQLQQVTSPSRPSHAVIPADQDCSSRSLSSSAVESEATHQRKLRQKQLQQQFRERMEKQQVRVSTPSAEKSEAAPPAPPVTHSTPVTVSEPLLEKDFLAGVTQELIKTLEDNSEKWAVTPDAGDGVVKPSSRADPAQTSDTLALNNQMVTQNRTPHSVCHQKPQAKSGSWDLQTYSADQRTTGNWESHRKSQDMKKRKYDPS

[14] = biological target: T3, High affinity choline transporter 1 (Homo sapiens, UniProt Q9GZV3); assay: CHT inhibitors, dose response, cell-based, 5-point CRC, membrane potential dye (AID 504840); type: functional
T3 sequence (Q9GZV3 whole entry): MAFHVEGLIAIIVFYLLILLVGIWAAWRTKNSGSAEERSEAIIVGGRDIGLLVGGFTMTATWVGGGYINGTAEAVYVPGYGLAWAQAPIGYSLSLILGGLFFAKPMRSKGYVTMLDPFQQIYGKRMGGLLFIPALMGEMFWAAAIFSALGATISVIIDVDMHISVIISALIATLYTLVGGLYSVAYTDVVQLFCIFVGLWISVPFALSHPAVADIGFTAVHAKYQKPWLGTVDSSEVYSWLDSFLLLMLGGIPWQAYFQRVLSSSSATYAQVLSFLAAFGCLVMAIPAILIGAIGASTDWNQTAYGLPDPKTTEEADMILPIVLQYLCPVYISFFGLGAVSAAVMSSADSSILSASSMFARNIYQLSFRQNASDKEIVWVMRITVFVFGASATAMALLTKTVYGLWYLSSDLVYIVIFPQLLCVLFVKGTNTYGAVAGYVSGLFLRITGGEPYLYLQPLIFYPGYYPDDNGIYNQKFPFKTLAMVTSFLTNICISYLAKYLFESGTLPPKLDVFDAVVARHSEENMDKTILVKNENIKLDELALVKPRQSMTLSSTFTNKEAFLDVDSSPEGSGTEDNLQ

[15] = inhibitors of firefly luciferase expression or activity, dose response, H4 neuroglioma cells, luminescence (AID 1990); type: functional, cell-based
[16] = Luminescence Cell-Based Dose Response HTS to Identify Inhibitors of 5'UTR Stem-Loop Driven Prion Protein mRNA Translation in H4 Neuroglioblastoma Cells. [Related pubchem assays: 1827 (Project Summary), 1813 (Primary HTS)]; type: functional
[17] = inhibitors of SNCA 5'UTR-driven reporter translation, confirmation, H4 neuroglioma cells, luminescence (AID 1988); type: functional, cell-based
[18] = biological target: T4, Heat shock factor protein 1 (Mus musculus, UniProt P38532); assay: inhibition of MG132-induced HSE-luciferase signal, confirmation, cell-based, NIH3T3, luminescence, dose retest (AID 2382); type: functional;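 further: NIH3T3 fibroblasts with HSF1-driven luciferase reporter stressed by proteasome inhibitor MG132; luminescence from HSF1-driven luciferase expression after 8 hours of MG132 stress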
T4 sequence (P38532 whole entry): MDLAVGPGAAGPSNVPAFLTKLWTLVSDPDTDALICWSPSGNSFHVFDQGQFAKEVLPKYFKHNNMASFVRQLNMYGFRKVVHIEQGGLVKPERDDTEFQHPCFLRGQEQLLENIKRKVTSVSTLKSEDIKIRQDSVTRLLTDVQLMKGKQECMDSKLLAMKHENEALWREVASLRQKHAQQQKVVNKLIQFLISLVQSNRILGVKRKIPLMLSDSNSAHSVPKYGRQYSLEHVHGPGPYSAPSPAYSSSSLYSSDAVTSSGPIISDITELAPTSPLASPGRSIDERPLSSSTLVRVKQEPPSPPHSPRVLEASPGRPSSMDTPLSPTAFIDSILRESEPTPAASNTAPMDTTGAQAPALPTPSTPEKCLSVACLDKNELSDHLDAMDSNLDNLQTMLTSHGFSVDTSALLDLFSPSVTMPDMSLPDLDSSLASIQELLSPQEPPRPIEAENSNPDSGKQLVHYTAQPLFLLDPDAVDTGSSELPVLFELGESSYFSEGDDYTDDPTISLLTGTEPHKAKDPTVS

[19] = intracellular Trypanosoma cruzi inhibitors in host cells – cell-based, plate reader, cherry-pick samples, set 3, dose response (AID 651818); type: functional;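 further: compounds incubated with infected cells for about four days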

Sequence of Steroidogenic factor 1 (Q13285 whole entry): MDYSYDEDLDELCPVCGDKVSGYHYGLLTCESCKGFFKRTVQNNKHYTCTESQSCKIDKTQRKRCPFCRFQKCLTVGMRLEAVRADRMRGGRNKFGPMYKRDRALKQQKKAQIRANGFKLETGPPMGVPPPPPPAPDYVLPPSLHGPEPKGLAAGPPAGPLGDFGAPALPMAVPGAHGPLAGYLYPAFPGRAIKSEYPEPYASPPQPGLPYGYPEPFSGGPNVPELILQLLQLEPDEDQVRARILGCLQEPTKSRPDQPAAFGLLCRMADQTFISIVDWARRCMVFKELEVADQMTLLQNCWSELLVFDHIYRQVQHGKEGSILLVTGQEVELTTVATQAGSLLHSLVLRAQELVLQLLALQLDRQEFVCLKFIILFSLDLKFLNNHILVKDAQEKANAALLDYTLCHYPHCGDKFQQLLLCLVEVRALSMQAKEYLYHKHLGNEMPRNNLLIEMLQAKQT
Sequence of Mitogen-activated protein kinase 10 (P53779 whole entry): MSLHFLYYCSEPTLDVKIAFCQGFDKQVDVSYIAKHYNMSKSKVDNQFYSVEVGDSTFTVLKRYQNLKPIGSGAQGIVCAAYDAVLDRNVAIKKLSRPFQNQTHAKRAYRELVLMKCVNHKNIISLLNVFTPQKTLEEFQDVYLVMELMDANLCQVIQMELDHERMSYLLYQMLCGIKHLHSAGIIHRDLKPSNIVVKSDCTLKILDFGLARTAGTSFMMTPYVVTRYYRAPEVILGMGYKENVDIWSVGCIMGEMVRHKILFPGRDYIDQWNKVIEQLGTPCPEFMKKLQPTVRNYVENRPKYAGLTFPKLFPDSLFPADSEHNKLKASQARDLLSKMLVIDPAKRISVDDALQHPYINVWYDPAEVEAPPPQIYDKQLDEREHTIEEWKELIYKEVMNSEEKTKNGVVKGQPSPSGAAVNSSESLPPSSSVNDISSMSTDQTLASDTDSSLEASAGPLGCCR
Sequence of Nuclear receptor subfamily 5 group A member 2 (O00482 whole entry): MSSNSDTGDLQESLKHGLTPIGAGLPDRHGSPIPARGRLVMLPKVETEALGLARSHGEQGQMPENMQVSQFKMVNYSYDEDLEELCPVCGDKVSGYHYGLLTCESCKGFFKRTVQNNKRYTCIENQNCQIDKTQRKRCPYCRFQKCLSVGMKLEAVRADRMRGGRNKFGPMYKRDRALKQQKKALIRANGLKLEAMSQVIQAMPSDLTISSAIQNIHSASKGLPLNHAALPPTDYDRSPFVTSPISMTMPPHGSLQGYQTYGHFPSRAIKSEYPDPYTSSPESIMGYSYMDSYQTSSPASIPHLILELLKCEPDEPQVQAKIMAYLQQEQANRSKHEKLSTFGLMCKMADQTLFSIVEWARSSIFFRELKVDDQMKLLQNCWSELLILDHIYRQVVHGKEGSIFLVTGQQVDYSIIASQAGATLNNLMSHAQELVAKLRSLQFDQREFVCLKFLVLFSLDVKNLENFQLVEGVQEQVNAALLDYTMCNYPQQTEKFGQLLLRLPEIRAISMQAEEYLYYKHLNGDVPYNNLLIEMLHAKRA

SMILES: CCOC(=O)C1=C(C)OC(N)=C(C#N)C1c1cc2ccccc2nc1N1CCCCC1 (stereo unspecified)
- IC50 [1]: > 93.1 µM (not active)

SMILES: COc1ccc(C#Cc2ccc([C@H]3[C@H]4CN(C(=O)c5ccccc5)CC(=O)N4[C@H]3CO)cc2)cc1
- AC50 [2]: 3.84 µM (active)
- AC50 [3]: 23.5 µM (active)
- AC50 [4]: 2.52 µM (active)
- AC50 [5]: 2.26 µM (active)
- AC50 [6]: 2.13 µM (active)

SMILES: CCc1cc(=O)oc2cc(C)cc(OCC(=O)NC3CC3)c12
- IC50 [7]: 0.292 µM (active)
- IC50 (Steroidogenic factor 1): 0.359 µM (active)
- IC50 [8]: 35.9 µM (inactive)

SMILES: CCCc1cc(=O)oc2cc(C)cc(OCC(=O)Nc3ccccn3)c12
- IC50 [7]: 3.99 µM (active)
- IC50 (Steroidogenic factor 1): 0.802 µM (active)
- IC50 [8]: 35.9 µM (inactive)

SMILES: CC1=CC(=C2C(=O)c3ccccc3C2=O)C=C(C)N1Cc1ccco1
- IC50 [1]: 22.9 µM (not active)

SMILES: CC(=O)c1cccc(NC(=O)Nc2ccc(C(=O)N3CCOCC3)cc2)c1
- AC50 (HEK293): 31.8 µM (active)

SMILES: Cc1ccccc1Nc1nc(-c2cccnc2)nc2ccccc12
- EC50 [9]: 0.741 µM (active)
- EC50 [10]: > 60 µM (inconclusive)
- IC50 [7]: 15.5 µM (inactive)
- IC50 (Steroidogenic factor 1): 12.6 µM (inactive)
- IC50 [8]: 24.9 µM (inactive)

SMILES: COc1cc2c(cc1OC)C(/C=C(\O)c1ccc([N+](=O)[O-])c(C)c1)=NCC2
- EC50 [11]: > 99 µM (inactive)
- EC50 [12]: 43.8 µM (inactive)

SMILES: Cc1ccc(N/C=C2/C(=O)N(c3nccs3)C(=O)c3ccccc32)c(C)c1
- EC50 [11]: > 99 µM (inactive)
- EC50 [12]: > 99 µM (inactive)

SMILES: CCN(CC)c1ccc(C(=O)NNC(=O)CCc2nc(O)c3ccccc3n2)cc1
- IC50 (H9c2): 18 µM (active)

SMILES: Cc1cc(C)c2sc(N(CCCN(C)C)C(=O)CN3C(=O)c4ccccc4C3=O)nc2c1
- AC50 [13]: 9.02 µM (active)

SMILES: CCCCN(CCCC)CCNC(=O)c1cn(C)c2ccc(S(=O)(=O)N(C)C3CCCCC3)cc2c1=O
- IC50 [14]: 15.6 µM (active)

SMILES: COc1ccc(C(=O)NCc2cn3c(C)csc3n2)cc1OC
- IC50 [1]: > 31 µM (not active)

SMILES: COCCn1c(C)cc(C(=O)COC(=O)c2[nH]nc3ccccc23)c1C
- EC50 [15]: 4.23 µM (inconclusive)
- EC50 [16]: 4.02 µM (active)
- EC50 [17]: 1.58 µM (active)
- AC50 (HEK293): 2.08 µM (active)

SMILES: Cc1c(C(=O)C2=C(O)C(=O)N(CCN3CCOCC3)C2c2ccccn2)cnn1-c1ccccc1 (stereo unspecified)
- EC50 [18]: 1.29 µM (active)
- AC50 (HEK293): 2.31 µM (active)

SMILES: COc1ccc(/C=N/NC(=O)c2cccnc2)cc1CSc1nc2ccccc2s1
- IC50 (H9c2): 21.2 µM (active)

SMILES: C[C@H]1CN([C@@H](C)CO)C(=O)Cc2cc(NC(=O)Nc3ccc(C(F)(F)F)cc3)ccc2O[C@H]1CN(C)Cc1ccc(C(F)(F)F)cc1
- AC50 [19]: 4.47 µM (active)

SMILES: C[C@@H]1CCCCO[C@@H](CN(C)Cc2ccc(Cl)c(Cl)c2)[C@@H](C)CN([C@H](C)CO)C(=O)c2cc(NS(=O)(=O)c3ccc(Cl)cc3)ccc2O1
- AC50 [19]: 6.5 µM (active)
